Measured values as given in ChEMBL document CHEMBL3112424, “Discovery and optimization of pyrimidone indoline amide PI3Kβ inhibitors for the treatment of phosphatase and tensin homologue (PTEN)-deficient cancers” (J Med Chem, 2014).
≈ marks a conversion by molar mass, not a printed value.

What was measured:
[1] = Cmax in Beagle dog at 3 mg/kg, iv; type: ADME, organism-based, Canis lupus familiaris; design: dose 3 mg/kg, route intravenous; conditions: in vivo
Mus musculus [2] = assay: Toxicity in SCID mouse xenografted with BRAF-V600E/PTEN-deficient human UACC62 cells at 150 mg/kg, po bid; type: organism-based, UACC-62; design: dose 150 mg/kg, route oral; conditions: in vivo
[3] = AUC (infinity) in Beagle dog at 3 mg/kg, iv; type: ADME, organism-based, Canis lupus familiaris; design: time infinity, dose 3 mg/kg, route intravenous; conditions: plasma
Mus musculus [4] = assay: In vivo inhibition of PI3Kbeta in tumor of po dosed SCID mouse xenografted with BRAF-V600E/PTEN-deficient human UACC62 cells assessed as inhibition of Akt phosphorylation at S473; type: functional, organism-based; conditions: UACC-62
[5] = Apparent terminal half life in Balb/c mouse plasma at 10 mg/kg, po by LC-MS/MS analysis; type: ADME, organism-based; design: dose 10 mg/kg, route oral; conditions: read-out: betat1/2(app) (converted)
PC-3 = assay: Antitumor activity against PTEN-deficient human PC3 cells xenografted in SCID mouse assessed as tumor growth inhibition at 150 mg/kg, po bid measured on day 31; type: functional
[6] = Tmax in nude rat at 10 mg/kg, po; type: ADME, organism-based; design: dose 10 mg/kg, route oral; conditions: in vivo
[7] = Fraction unbound in SCID mouse plasma xenografted with PTEN-deficient human PC3 cells at 100 mg/kg, po; type: ADME, organism-based, PC-3; design: dose 100 mg/kg, route oral
[8] = target: Phosphatidylinositol 4-phosphate 3-kinase C2 domain-containing subunit alpha (Homo sapiens, UniProt O00443); assay: Inhibition of PI3KC2alpha (unknown origin)
[9] = Plasma concentration in Balb/c mouse at 100 mg/kg, po measured for 5 hrs; type: ADME, organism-based; design: dose 100 mg/kg, route oral
[10] = Tmax in Beagle dog at 3 mg/kg, iv; type: ADME, organism-based, Canis lupus familiaris; design: dose 3 mg/kg, route intravenous; conditions: in vivo
[11] = Solubility of the compound in phosphate buffer at pH 7.4 by HPLC analysis; conditions: buffer
[12] = Apparent permeability in human Caco2 cells at 5 uM after 20 mins; conditions: Caco-2
Mus musculus [13] = assay: Toxicity in SCID mouse xenografted with PTEN-deficient human PC3 cells at 150 mg/kg, po bid; type: organism-based, PC-3; design: dose 150 mg/kg, route oral; conditions: in vivo
[14] = target: T1, Phosphatidylinositol 4,5-bisphosphate 3-kinase catalytic subunit beta isoform (Homo sapiens, UniProt P42338); assay: Inhibition of PI3Kbeta-mediated Akt phosphorylation at S473 in PTEN-deficient human PC3 cells after 0.5 to 2 hrs by Immunoblotting assay; type: cell-based, PC-3
[15] = Plasma concentration in Balb/c mouse at 100 mg/kg, po measured for 12 hrs; type: ADME, organism-based; design: dose 100 mg/kg, route oral
[16] = target: T2, Phosphatidylinositol 3-kinase C2 domain-containing subunit gamma (Homo sapiens, UniProt O75747); assay: Inhibition of PI3KC2gamma (unknown origin)
T2 sequence (O75747 whole entry): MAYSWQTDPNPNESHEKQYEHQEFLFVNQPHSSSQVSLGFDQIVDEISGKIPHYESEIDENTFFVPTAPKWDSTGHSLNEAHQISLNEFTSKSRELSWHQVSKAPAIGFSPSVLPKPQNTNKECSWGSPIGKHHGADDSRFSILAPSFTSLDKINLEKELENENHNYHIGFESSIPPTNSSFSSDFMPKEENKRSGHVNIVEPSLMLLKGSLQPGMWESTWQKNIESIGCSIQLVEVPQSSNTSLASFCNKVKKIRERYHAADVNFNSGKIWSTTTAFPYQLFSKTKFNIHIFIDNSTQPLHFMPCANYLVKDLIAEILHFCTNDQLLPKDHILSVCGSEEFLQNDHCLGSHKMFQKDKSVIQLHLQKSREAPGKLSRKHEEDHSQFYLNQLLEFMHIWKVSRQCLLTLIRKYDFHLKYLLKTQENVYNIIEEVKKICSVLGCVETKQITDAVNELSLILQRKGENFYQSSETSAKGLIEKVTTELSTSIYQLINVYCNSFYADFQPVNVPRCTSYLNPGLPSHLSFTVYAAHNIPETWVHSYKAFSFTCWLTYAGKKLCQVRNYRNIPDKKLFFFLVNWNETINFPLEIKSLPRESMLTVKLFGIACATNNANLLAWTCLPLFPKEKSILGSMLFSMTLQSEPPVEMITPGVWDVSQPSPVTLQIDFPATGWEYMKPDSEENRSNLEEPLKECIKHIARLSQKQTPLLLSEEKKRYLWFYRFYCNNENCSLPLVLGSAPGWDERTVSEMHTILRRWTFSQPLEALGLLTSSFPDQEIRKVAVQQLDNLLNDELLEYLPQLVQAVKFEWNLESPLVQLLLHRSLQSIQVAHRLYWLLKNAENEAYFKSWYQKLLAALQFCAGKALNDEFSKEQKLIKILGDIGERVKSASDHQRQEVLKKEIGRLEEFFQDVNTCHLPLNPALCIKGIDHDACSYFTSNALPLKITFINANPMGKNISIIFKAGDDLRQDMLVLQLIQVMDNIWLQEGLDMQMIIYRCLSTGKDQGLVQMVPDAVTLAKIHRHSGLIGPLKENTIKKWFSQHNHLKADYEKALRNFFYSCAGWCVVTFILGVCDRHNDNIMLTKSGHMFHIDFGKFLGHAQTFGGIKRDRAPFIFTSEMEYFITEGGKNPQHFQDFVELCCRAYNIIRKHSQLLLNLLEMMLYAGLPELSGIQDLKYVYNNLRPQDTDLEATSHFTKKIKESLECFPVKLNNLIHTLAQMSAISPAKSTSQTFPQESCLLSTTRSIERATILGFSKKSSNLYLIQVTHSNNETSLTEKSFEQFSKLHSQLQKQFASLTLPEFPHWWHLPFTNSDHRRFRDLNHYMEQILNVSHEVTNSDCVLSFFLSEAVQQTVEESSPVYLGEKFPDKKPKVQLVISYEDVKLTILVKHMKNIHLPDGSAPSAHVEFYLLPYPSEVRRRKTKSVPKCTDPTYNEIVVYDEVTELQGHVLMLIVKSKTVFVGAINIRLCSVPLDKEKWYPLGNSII

[17] = Half life in Beagle dog at 10 mg/kg, po; type: ADME, organism-based, Canis lupus familiaris; design: dose 10 mg/kg, route oral; conditions: in vivo
[18] = AUC (infinity) in Beagle dog at 10 mg/kg, po; type: ADME, organism-based, Canis lupus familiaris; design: time infinity, dose 10 mg/kg, route oral; conditions: plasma
[19] = Oral bioavailability in nude rat at 10 mg/kg; type: ADME, organism-based; conditions: in vivo
[20] = target: T1, Phosphatidylinositol 4,5-bisphosphate 3-kinase catalytic subunit beta isoform; assay: Inhibition of PI3Kbeta-mediated Akt phosphorylation at S473 in BRAF-V600E/PTEN-deficient human UACC62 cells; type: cell-based, UACC-62
[21] = AUC (infinity) in Balb/c mouse plasma at 10 mg/kg, po by LC-MS/MS analysis; type: ADME, organism-based; design: time infinity, dose 10 mg/kg, route oral
[22] = Clearance in nude rat at 3 mg/kg, iv; type: ADME, organism-based; design: dose 3 mg/kg, route intravenous; conditions: in vivo

T1 sequence (P42338 whole entry, canonical isoform): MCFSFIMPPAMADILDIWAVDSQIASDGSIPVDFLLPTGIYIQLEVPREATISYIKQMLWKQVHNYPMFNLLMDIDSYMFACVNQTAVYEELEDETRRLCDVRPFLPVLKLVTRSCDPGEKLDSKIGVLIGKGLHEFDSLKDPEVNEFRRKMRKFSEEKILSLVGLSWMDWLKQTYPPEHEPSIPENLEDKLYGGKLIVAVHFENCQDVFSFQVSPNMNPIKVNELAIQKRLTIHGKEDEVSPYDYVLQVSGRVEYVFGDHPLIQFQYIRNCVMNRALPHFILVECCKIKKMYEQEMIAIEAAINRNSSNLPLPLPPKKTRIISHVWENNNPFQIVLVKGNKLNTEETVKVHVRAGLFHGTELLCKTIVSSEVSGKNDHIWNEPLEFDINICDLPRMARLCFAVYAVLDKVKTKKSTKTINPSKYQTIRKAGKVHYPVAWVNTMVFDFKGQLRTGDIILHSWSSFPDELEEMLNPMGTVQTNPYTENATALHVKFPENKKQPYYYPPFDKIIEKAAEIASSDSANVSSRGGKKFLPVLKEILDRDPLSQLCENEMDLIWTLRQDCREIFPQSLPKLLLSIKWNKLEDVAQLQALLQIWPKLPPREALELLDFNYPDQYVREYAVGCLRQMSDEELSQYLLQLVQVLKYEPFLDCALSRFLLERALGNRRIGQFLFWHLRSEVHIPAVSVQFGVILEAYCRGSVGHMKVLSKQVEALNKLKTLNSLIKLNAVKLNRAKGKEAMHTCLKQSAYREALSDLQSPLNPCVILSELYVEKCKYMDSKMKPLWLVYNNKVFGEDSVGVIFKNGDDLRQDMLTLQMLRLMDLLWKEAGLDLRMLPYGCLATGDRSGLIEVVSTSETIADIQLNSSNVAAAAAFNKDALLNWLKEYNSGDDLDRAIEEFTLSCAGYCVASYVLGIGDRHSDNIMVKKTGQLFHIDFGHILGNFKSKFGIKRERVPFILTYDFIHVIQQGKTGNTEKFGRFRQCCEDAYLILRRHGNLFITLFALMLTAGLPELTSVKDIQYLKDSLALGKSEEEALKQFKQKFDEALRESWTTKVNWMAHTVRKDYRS
Chain of Phosphatidylinositol 4-phosphate 3-kinase C2 domain-containing subunit alpha (O00443 whole entry, the tested form may be a part): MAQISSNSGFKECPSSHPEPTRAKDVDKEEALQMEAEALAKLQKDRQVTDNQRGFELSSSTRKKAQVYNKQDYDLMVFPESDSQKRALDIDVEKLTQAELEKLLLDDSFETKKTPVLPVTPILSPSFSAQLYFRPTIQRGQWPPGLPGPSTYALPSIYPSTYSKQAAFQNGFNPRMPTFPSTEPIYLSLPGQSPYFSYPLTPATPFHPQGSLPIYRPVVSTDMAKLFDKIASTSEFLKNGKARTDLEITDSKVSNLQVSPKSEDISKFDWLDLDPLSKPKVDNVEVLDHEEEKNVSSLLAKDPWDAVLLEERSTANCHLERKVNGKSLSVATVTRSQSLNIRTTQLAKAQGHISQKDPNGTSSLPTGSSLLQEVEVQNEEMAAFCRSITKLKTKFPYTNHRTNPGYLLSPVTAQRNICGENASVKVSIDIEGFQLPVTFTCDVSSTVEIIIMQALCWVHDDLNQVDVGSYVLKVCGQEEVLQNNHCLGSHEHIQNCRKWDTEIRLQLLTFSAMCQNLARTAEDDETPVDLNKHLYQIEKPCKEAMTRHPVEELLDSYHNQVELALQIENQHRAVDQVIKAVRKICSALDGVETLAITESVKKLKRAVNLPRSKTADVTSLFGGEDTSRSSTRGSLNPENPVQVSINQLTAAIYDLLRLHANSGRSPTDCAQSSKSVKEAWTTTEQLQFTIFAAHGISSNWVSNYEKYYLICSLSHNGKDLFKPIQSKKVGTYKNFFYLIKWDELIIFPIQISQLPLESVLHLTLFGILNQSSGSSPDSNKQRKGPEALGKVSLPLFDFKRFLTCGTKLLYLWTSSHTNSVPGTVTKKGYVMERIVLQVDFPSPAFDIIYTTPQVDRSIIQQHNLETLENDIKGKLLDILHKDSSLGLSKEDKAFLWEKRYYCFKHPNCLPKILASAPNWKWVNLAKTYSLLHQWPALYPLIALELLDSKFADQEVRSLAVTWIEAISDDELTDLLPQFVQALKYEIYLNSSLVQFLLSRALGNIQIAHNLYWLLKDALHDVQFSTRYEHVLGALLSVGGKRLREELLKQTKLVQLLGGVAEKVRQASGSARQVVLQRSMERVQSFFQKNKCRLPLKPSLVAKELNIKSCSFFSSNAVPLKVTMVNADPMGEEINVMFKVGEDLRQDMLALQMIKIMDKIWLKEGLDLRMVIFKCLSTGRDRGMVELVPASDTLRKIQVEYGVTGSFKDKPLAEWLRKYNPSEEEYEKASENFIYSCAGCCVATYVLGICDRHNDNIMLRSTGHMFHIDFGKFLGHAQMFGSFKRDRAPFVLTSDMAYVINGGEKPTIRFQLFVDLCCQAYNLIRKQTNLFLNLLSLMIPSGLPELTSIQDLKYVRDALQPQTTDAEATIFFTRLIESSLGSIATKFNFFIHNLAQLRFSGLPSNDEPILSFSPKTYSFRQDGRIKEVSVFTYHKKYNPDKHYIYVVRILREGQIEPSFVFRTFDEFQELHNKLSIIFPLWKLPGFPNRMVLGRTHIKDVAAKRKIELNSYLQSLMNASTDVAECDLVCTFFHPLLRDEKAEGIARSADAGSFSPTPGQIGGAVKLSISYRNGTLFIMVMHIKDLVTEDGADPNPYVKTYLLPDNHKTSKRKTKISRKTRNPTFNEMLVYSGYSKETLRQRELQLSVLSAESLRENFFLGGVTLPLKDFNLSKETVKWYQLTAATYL

Structure (SMILES): C[C@H]1Cc2ccccc2N1C(=O)Cc1nc(N2CCOCC2)cc(=O)[nH]1 [SAR-260301]
- Cmax [1]: 4920 ng/mL
- Activity (Mus musculus [2]): Non-toxic
- AUC(0-inf) [3]: 6580 ng·h/mL
- EC50 (Mus musculus [4]): 4.55 µM
- half-life [5]: 84 min
- T/C (PC-3): 61%
- Tmax [6]: 15 min
- fraction unbound [7]: 0.4
- IC50 [8]: > 10 µM
- concentration at 5 h [9]: > 1000 nM
- Tmax [10]: 30 min
- solubility [11]: 928 µM (≈ 329 µg/mL)
- Papp at 20 min, 5 µM [12]: 4.8 ×10⁻⁶ cm/s
- Activity (Mus musculus [13]): Non-toxic
- IC50 [14]: 0.049 µM
- concentration at 12 h [15]: > 100 nM
- IC50 [16]: 3.81 µM
- half-life [17]: 270 min
- AUC(0-inf) [18]: 14000 ng·h/mL
- bioavailability [19]: 70%
- IC50 [20]: 0.06 µM
- AUC(0-inf) [21]: 610 ng·h/mL
- clearance [22]: 56.7 mL/min/kg
